A short description of series [1]: Relaxability (r1 and r2) under 3.0T and 9.4T magnetic fields in water and HSA. In kind it is physicochemical.
The target in series [2] is T1, HSA (Homo sapiens, UniProt P02768). The series is described as follows: HSA binding affinity by ultrafiltration analysis.
Procedure: (§1) The HSA binding affinity was measured using ultrafiltration analysis.
Series [3] can be described thus: Hydrophilicity (log P).
Source text: The Log P value is a value for evaluating the hydrophilicity. When the P value is smaller than 1, the Log P value becomes negative to indicate the hydrophilicity. When the P value is greater than 1, the Log P value becomes positive to indicate lipophilicity.
In series [4] the test system is liver. The series is described as follows: 3.0T MR imaging of liver and gallbladder in normal mice versus commercial contrast agents. Type of series: in vivo. As to conditions: 5min to 120min after injection, FIG. 9.
The conditions of series [5]: value marked with footnote a (footnote not given); cited from earlier work.
The conditions of series [6]: 3.0-T, Water; value marked with footnote a (footnote not given); cited from earlier work.
Series [7] concerns C6 glioma. The series is described as follows: MR imaging of brain cancer model. Type of series: in vivo. The following applies: 0.1 mmol/kg Gd-DO3A-butrol versus 0.05 mmol/kg Gd-PCTA-Ach; FIG. 8A. How it is done: After a brain cancer model was prepared using C6 glioma which is a brain cancer cell, 0.1mmol/kg of Gd-PCTA-Ach 0.1mmol/kg, Gd-PCTA-Ach 0.05mmol/kg, and Gd-DO3A-butrol were injected thereto, respectively, to obtain MR images (FIG. 8A) and CNR graphs (FIG. 8B) according to the MR images, and the results are shown in FIG. 8.

The target in series [8] is T1, HSA.
Procedure: as §1

Where two headings read alike, the source gives them in different places.

T1 sequence (P02768 25-609): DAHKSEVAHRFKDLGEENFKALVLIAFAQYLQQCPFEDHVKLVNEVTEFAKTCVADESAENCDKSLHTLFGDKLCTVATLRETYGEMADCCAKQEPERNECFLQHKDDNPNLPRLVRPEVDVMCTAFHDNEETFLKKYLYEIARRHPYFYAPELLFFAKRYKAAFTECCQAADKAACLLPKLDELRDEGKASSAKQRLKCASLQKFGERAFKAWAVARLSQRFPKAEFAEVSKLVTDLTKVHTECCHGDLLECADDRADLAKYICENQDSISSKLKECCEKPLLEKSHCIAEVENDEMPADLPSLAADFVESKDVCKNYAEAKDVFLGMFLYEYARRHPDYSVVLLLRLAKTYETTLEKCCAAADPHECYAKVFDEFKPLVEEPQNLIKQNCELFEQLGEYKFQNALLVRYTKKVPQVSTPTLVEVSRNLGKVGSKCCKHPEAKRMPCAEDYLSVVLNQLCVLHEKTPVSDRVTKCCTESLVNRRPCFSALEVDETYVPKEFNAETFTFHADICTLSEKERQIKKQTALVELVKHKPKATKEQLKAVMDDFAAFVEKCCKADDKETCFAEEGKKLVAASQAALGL

For the molecule `CCOc1ccc(C[C@@H](CN(CCN(CC(=O)[O-])CC(=O)[O-])CC(=O)[O-])N(CC(=O)[O-])CC(=O)[O-])cc1.[Gd+3].[Na+].[Na+]` [Gd-EOB-DTPA], the r1 in series [1] (3.0-T, HSA) is 7.7 ± 0.1 mM⁻¹ s⁻¹; in series [1] (3.0-T, Water), 6.5 ± 0.04 mM⁻¹ s⁻¹; in series [1] (9.4-T, Water), 7.4 ± 1.4 mM⁻¹ s⁻¹. The r2 was determined as 11.1 ± 0.04 mM⁻¹ s⁻¹ in series [1] (3.0-T, HSA); 7.3 ± 0.4 mM⁻¹ s⁻¹ in series [1] (3.0-T, Water); 10.7 ± 1.9 mM⁻¹ s⁻¹ in series [1] (9.4-T, Water). Also, in series [2], the “HSA bindin g affinity (%)” value was 8.9%. Further, the “log P (log Co/Cw)” value in series [3] is -2.9. The “gallbladder contrast enhancement over time” value in series [4] was “initially enhanced, and then was observed to decrease slowly”.
On to `O=C(CCC(C(=O)[O-])N1CCN(C(CCC(=O)NCC(O)CO)C(=O)[O-])Cc2cccc(n2)CN(C(CCC(=O)NCC(O)CO)C(=O)[O-])CC1)NCC(O)CO.[Gd+3]` (stereo not shown) [Gadopiclenol], for which the “log P (log Co/Cw)” value in series [5] is given as -4.2. Also, the r1 in series [6] is 11.3 mM⁻¹ s⁻¹.
For the molecule Gd-DO3A-butrol, the r1 in series [1] (3.0-T, HSA) came to 4.3 ± 0.1 mM⁻¹ s⁻¹; in series [1] (3.0-T, Water) it was 4.3 ± 0.2 mM⁻¹ s⁻¹; in series [1] (9.4-T, Water), 4.9 ± 0.9 mM⁻¹ s⁻¹. Also, the r2 in series [1] (3.0-T, HSA) came to 6.5 ± 0.1 mM⁻¹ s⁻¹; in series [1] (3.0-T, Water), 5.5 ± 0.02 mM⁻¹ s⁻¹; in series [1] (9.4-T, Water), 6.4 ± 1.1 mM⁻¹ s⁻¹. In addition, the “HSA bindin g affinity (%)” value in series [2] worked out at 3.4%. Also, the “log P (log Co/Cw)” value in series [3] was -3.1. Further, the “brightness in MR image” value in series [7] is given as “comparable”.
With `O=C([O-])CN(CCN(CC(=O)[O-])CC(=O)[O-])CCN(CC(=O)[O-])C(COCc1ccccc1)C(=O)[O-].[Gd+3]` (stereo not shown) [Gd-BOPTA], the r1 in series [1] (3.0-T, HSA) stood at 5.8 ± 0.2 mM⁻¹ s⁻¹; in series [1] (3.0-T, Water), 5.1 ± 0.02 mM⁻¹ s⁻¹; in series [1] (9.4-T, Water), 6.1 ± 1.1 mM⁻¹ s⁻¹. Besides, the r2 is 9.0 ± 0.3 mM⁻¹ s⁻¹ in series [1] (3.0-T, HSA); 6.8 ± 0.4 mM⁻¹ s⁻¹ in series [1] (3.0-T, Water); 8.1 ± 1.4 mM⁻¹ s⁻¹ in series [1] (9.4-T, Water). Further, the “gallbladder contrast enhancement over time” value in series [4] was “initially enhanced, and then was observed to decrease slowly”. Besides, the “HSA bindin g affinity (%)” value in series [8] is 15.0%.

The record behind these values is patent EP4582432A1, “NOVEL COMPOUND AND MRI CONTRAST AGENT COMPRISING SAME” (Theranocure Co., Ltd., priority 2022, dated 2024).
